Holding throughout (type): cell-based
Experiment [1] concerns the target T1, human TRPM5 (Homo sapiens, UniProt Q9NZQ8).
T1 construct: expressed in transfected cells
T1 sequence (Q9NZQ8 1-1165): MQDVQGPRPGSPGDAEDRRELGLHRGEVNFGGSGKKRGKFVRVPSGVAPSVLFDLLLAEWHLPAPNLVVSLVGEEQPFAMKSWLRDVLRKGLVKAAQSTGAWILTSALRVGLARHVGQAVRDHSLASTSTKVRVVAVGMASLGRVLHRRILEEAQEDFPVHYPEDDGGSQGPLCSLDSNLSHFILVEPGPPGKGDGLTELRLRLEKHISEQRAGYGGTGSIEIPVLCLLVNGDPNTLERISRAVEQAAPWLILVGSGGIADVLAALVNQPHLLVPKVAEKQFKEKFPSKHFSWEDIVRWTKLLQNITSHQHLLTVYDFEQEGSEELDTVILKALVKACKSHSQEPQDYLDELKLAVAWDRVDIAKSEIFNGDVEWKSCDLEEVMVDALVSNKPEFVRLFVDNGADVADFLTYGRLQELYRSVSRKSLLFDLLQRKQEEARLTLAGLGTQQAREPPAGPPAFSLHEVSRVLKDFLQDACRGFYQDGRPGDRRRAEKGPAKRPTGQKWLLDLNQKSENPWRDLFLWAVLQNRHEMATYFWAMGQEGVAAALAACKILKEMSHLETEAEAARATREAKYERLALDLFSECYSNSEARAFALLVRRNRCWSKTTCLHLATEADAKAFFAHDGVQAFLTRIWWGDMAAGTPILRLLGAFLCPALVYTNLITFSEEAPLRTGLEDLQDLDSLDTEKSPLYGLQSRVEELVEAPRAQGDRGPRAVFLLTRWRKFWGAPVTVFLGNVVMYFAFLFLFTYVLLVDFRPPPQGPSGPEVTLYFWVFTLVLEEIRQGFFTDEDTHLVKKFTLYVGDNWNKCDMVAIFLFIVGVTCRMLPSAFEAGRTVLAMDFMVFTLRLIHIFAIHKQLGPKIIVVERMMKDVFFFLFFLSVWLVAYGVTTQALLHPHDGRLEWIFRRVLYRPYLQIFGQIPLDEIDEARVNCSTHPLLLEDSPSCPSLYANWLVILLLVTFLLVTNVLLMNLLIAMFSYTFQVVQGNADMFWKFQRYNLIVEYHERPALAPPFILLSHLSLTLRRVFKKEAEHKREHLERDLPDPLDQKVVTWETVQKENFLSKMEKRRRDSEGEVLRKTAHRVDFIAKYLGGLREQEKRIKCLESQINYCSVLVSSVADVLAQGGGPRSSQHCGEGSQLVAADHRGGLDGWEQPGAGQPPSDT
Kind of experiment: TRPM5 membrane potential dye FLIPR assay in hTRPM5-HEK293 cells, ATP stimulated. Particulars: for inhibition at 10 µM: 10 μM compound, 3 μM ATP, read-out: TRPM5 Activity (percent inhibition; enhancement is negative inhibition). As for the experimental part:
The activity of human TRPM5 ion channel was measured in live cells on a fluorescent imaging plate reader (FLIPR). The basis of the assay (shown in FIG. 1) is the calcium-dependent activation of the ion channel which occurs via by activation of a G-protein coupled receptor (GPCR). GPCR activation by an appropriate agonist causes a transient increase in […] Ca^2+ ion concentration which in turn causes the ion channel to open, letting in Na^+ ions. This influx causes a change in the membrane potential of the cell which can be monitored as a change in the fluorescent signal from voltage-dependent (membrane potential) fluorescent dyes.
For the screening assay, the human TRPM5 gene was cloned, put into HEK293 cells, and a stable, high expression clone was used for screening. Cells were grown in standard media at 37° C. The day before screening, the cells were removed from flasks and added to 384 well clear bottom plates (8K cells in 20 μL/well). On the assay day, 20 μL of membrane potential dye (Part No. R8123, Molecular Devices Corp.) was added to the cells and dye was allowed to be taken up, i.e., load, into the cells for 1 hr at 37° C. […] The assay was started by addition of 10 μL of solution from the compound plate into the cell plate. During this process, continuous fluorescent recordings were made simultaneously for all wells. After addition of the compound solution, the tips were automatically washed and a stimulation solution of 3 μM ATP to activate TRPM5 (an agonist for an endogenous purinurgic GPCR), was added to all wells of the cell plate. The height of the response was calculated and percent inhibition or enhancement values, versus negative control wells, was calculated for the test samples. Exemplary results are shown in the upper left graph of FIG. 3.

Experiment [2] concerns GPCR-mediated calcium activation step. Description: Calcium counterscreen (calcium sensitive dye, ATP stimulated). Particulars: Homo sapiens, 10 μM compound, read-out: Calcium Counterscreen (percent inhibition). As for the experimental part: (§1) Two counterscreen assays were run on separate cell plates utilizing the same cells as described above. In the calcium counterscreen, the cells were loaded with a calcium sensitive dye (Calcium3 Dye, Part no. 8090, Molecular Devices Corp.) and stimulated by ATP to check for compounds that block the GPCR-mediated calcium activation step. Exemplary results of this assay are shown in the lower left graph of FIG. 3. In the KCl counterscreen, cells are stimulated with 10 mM KCl instead of ATP to check for compounds that inhibit the membrane potential response by virtue of being non-specific ion channel blockers or enhancers.
A general note: Counterscreens check selectivity or assay interference.

Experiment [3] concerns membrane potential response (non-specific ion channel blockers or enhancers). Description: KCl counterscreen (membrane potential response, 10 mM KCl instead of ATP). Particulars: Homo sapiens, 10 μM compound, read-out: KCl Counterscreen (percent inhibition). The method, then:
as §1

The target of experiment [4] is T1, human TRPM5. Description: Whole-cell electrophysiological recording of TRPM5 current. Particulars: 10 μM compound. The method, then:
Standard whole-cell recordings were obtained from […] cells stably transfected with human TRPM5. Internal solution contained 135 mM CsGlutamate, 10 mM HEPES, 2 mM MgATP, 5 mM CaCl2 and 10 mM EGTA. External solution was HBSS (Gibco) buffered with 20 mM HEPES to pH 7.2. Currents were recorded with Multiclamp 700B amplifier using PClamp software; filtered at 1 kHz, sampled at 5 kHz. Holding potential was −80 mV. TRPM5 current in a single was activated by intracellular calcium dialysis (free calcium) and sampled with 200 ms ramps from −80 to 80 mV at 1 Hz. Current amplitudes were measured at −80 and 80 mV and plotted versus time. […] In essence, it appears that the compound makes the TRPM5 responsive lower or weaker Ca++ signals than is normally the case.

For experiment [5], the system named is non-transfected, sham HEK cells. Description: Whole-cell electrophysiological recording in sham cells.

The text below walks through data of patent US7674831B2, “Heterocyclic compounds as sweetener enhancers” (Redpoint Bio Corporation, priority 2006, dated 2010).

What is called inhibition is the drop in the measured response relative to a control, in per cent. As to `CCOC(=O)C/N=c1\sc2ccccc2n1C` [Example 1, Ethyl 2-(3-Methylbenzo[d]thiazol-2(3H)-ylideneamino)acetate], the figures for the inhibition at 10 µM (at human TRPM5 [1]; in experiment [2]; in experiment [3]) were -139%, -18% and 10%, respectively.

As to `COc1ccccc1OCCSc1nc2ccccc2[nH]1` [Example 2, 2-(2-(2-Methoxyphenoxy)ethylthio)-1H-benzimidazole], the values for the inhibition at 10 µM (at human TRPM5 [1]; in experiment [2]; in experiment [3]) were -136%, 19% and -3%, respectively.

`COC(=O)c1sccc1Oc1ccc([N+](=O)[O-])cn1` [Example 3]: the inhibition at 10 µM is -113% at human TRPM5 [1], 11% in experiment [2] and 17% in experiment [3].

For the molecule `CCc1nnc2nc(-c3ccc(Cl)c([N+](=O)[O-])c3)[nH]n12` [Example 4, 6-(4-Chloro-3-nitrophenyl)-3-ethyl-5H-[1,2,4]triazolo[4,3-b][1,2,4]triazole], the inhibition at 10 µM at human TRPM5 [1] was -101%; in experiment [2], 13%; in experiment [3] it was -32%.

Regarding `Cc1ccc(-c2cn3ncsc3n2)cc1` [Example 5, 6-p-Tolylimidazo[2,1-b][1,3,4]thiadiazole], the inhibition at 10 µM on human TRPM5 [1] is -100%; in experiment [2] it was 23%; in experiment [3], 7%.

`O=C(Nc1ccccc1)N1CCCN(c2nc(-c3ccccc3)ns2)CC1` [Example 6, N-Phenyl-4-(3-phenyl-1,2,4-thiadiazol-5-yl)-1,4-diazepane-1-carboxamide]: the inhibition at 10 µM at human TRPM5 [1] was -98%; in experiment [2], -69%; in experiment [3], 16%.

Regarding `COc1cccc(OC)c1OCCSc1nc2ccccc2n1CCO` [Example 7, 2-(2-(2-(2,6-Dimethoxyphenoxy)ethylthio)-1H-benzimidazol-1-yl)ethanol], the figures for the inhibition at 10 µM (at human TRPM5 [1]; in experiment [2]; in experiment [3]) were -95%, -15% and -4%, respectively.

As to `CCn1c(C)nc([N+](=O)[O-])c1Sc1ccc(Cl)cn1` [Example 8, 1-Ethyl-2-methyl-4-nitro-5-(5-chloropyridin-2-ylthio)imidazole], the inhibition at 10 µM on human TRPM5 [1] is -76%; in experiment [2], -22%; in experiment [3], 7%. The “effect on TRPM5 activity (FIG. 3)” value at human TRPM5 [1] (1, 3, 10 and 30 μM compound) was “selective enhancement”.

`CC1(C)C(c2ccccc2)=NC(c2ccccc2)=[N+]1[O-]` [Example 9, 2,4-Diphenyl-5,5-dimethylimidazole-1-oxide]: the inhibition at 10 µM is -73% on human TRPM5 [1], -15% in experiment [2] and 17% in experiment [3].

In the case of `C=CCNC(=S)/N=c1\sc2ccccc2n1C` [Example 10, 1-Allyl-3-(3-methylbenzo[d]thiazol-2-(3H)-ylidene)thiourea], the results for the inhibition at 10 µM (on human TRPM5 [1]; in experiment [2]; in experiment [3]) were -73%, 0% and 1%, respectively. The “TRPM5 current stimulation by compound” value on human TRPM5 [4] (30 μm calcium) is recorded as “further stimulation”. Further, the “TRPM5 current in response to compound” value at human TRPM5 [4] (+80 mV, calcium 300 nm) was above 5 nA. Also, at human TRPM5 [4] (absence of calcium), the “TRPM5 current activation by compound” value is “no current activation”. Further, in experiment [5], the “current in sham cells” value is listed as “no significant current”.

Take `N=c1sccn1CC(=O)c1cccc([N+](=O)[O-])c1` [Example 11, 2-(2-Iminothiazol-3(2H)-yl)-1-(3-nitrophenyl)ethanone]: the inhibition at 10 µM was -68% on human TRPM5 [1], -12% in experiment [2] and 21% in experiment [3].

Turning to `Cc1csc(-c2cn(C(C)C)c(=O)n(Cc3ccccc3)c2=O)n1` [Example 12], the inhibition at 10 µM was -62% on human TRPM5 [1], -5% in experiment [2] and 3% in experiment [3].

With `COc1c(Cl)cccc1-c1cn2ccccc2n1` [Example 13, 2-(3-Chloro-2-methoxyphenyl)imidazo[1,2-a]pyridine], the inhibition at 10 µM at human TRPM5 [1] was -57%; in experiment [2] it was 9%; in experiment [3] it was -10%.

Regarding `CCc1ccc(-c2csc(NC(=O)c3cc(OC)cc(OC)c3)n2)cc1` [Example 14, N-(4-(4-Ethylphenyl)thiazol-2-yl)-3,5-dimethoxybenzamide], the inhibition at 10 µM on human TRPM5 [1] is -55%; in experiment [2] it was 10%; in experiment [3], -101%.

As for `O=c1sc2ccccc2c2c1ncn2-c1ccccc1` [Example 15, 1-Phenylthiochromeno[4,3-d]imidazol-4(1H)-one], the inhibition at 10 µM at human TRPM5 [1] is -48%; in experiment [2] it was -22%; in experiment [3] it was -9%.

On to `CN(C)CC(=O)Nc1nc(-c2ccc(Cl)cc2)cs1` [Example 16, N-(4-(4-Chlorophenyl)thiazol-2-yl)-2-(dimethylamino)acetamide], for which the results for the inhibition at 10 µM (on human TRPM5 [1]; in experiment [2]; in experiment [3]) were -23%, -25% and -9%, respectively.

In the case of `Cn1nc(C(F)(F)F)c(C(=O)Nc2ccc(C(F)(F)F)cc2)c1Cl` [Example 17, 5-Chloro-1-methyl-3-(trifluoromethyl)-N-(4-(trifluoromethyl)phenyl)-1H-pyrazole-4-carboxamide], the inhibition at 10 µM on human TRPM5 [1] is -16%; in experiment [2], 4%; in experiment [3], -25%.
